One series is described as follows: Log P (Table 4). The conditions noted are these: method not stated. It is filed as physicochemical.
Series [1] relates to A549 Cell line (Lung Cancer Cell line). In words: Cell proliferation assay (MTT), in-vitro anticancer activity against A549 cell line. The format is cell-based. The following applies: Homo sapiens, 72 h; for viability at 0.01 µM: A549, 0.01 μM; for viability at 0.1 µM: A549, 0.1 μM; for viability at 2.5 µM: A549, 2.5 μM; for viability at 5 µM: A549, 5 μM; for viability at 10 µM: A549, 10 μM. The procedure: (§1) Each cell line was plated in 96-well microtiter plates (10,000 cells per well), and serial dilutions of indicated compounds were added. At the end of the incubation period (72 h at 37° C.), cell viability was determined by a tetrazolium dye, MTT (3-(4,5-dimethylthiazol-2-yl)-2,5-diphenyl tetrazolium bromide) (Promega, USA). The formazan crystals were dissolved in DMSO, and the absorbance at 600 nm was recorded using an ELISA plate reader. IC50 values were calculated using nonlinear regression and defined as the concentration needed for a 50% reduction in absorbance of treated versus untreated control cells.
In-Vitro Anticancer Activity Against A549 Cell Line (Lung Cancer Cell Line) (Adenocarcinomic Human Alveolar Basal Epithelial Cells)

The subject of series [2] is U87MG Cell line (glioblastoma cell line). Nature of the series: Cell proliferation assay (MTT), in-vitro anticancer activity against U87MG cell line. It is filed as cell-based. The conditions noted are these: Homo sapiens, U-87 MG, 72 h. The procedure: as §1
In-Vitro Anticancer Activity Against U87MG Cell Line (Glioblastoma Cell Line)

Molecules are shown by their SMILES.

Regarding `Nc1nc(Nc2ccccc2)sc1-c1cc(=O)c2ccccc2o1` [Compound S1-M1, 2-(4-amino-2-(phenylamino)thiazol-5-yl)-4H-chromen-4-one], the melting point (commonly the temperature of the solid-liquid transition) was 232 to 234 °C. Further, the logP (in general, the decadic logarithm of the partition coefficient of the neutral form, usually between octanol and water) in “Log P (Table 4)” worked out at 3.2. Besides, in series [1], the viability (as a rule, the share of living cells, or the viability signal relative to a control) at 0.01 µM worked out at 100%; the viability at 0.1 µM was found to be 90.5%; the viability at 2.5 µM came out at 82.5%; the viability at 5 µM amounted to 75.5%. In series [1], this molecule had a viability at 10 µM of 60.5%. In series [2], this molecule showed a viability at 0.01 µM of 88%, a viability at 0.1 µM of 79.5%, a viability at 2.5 µM of 70.5% and a viability at 5 µM of 62.5%. In series [2], this molecule had a viability at 10 µM of 51.5%.
`Cc1ccc(Nc2nc(N)c(-c3cc(=O)c4ccc(O)cc4o3)s2)cc1` [Compound S1-M2, 2-(2-(p-tolylamino)-4-aminothiazol-5-yl)-7-hydroxy-4H-chromen-4-one] yielded a melting point of 244 to 246 °C. This molecule displayed a logP in the series “Log P (Table 4)” of 1.9. Moreover, in series [1], the viability at 0.01 µM came out at 56.1%, the viability at 0.1 µM was 41.1%, the viability at 2.5 µM came to 31.1% and the viability at 5 µM is 24.1%. In series [1], this molecule yielded a viability at 10 µM of 20.9%. In series [2], this molecule displayed a viability at 0.01 µM of 41.1%, a viability at 0.1 µM of 34.4%, a viability at 2.5 µM of 28.1% and a viability at 5 µM of 19.6%. In series [2], this molecule gave a viability at 10 µM of 14.9%.
In turn, `Cc1ccccc1Nc1nc(N)c(-c2cc(=O)c3ccc(O)cc3o2)s1` [Compound S1-M3, 2-(2-(o-tolylamino)-4-aminothiazol-5-yl)-7-hydroxy-4H-chromen-4-one] returned a melting point of 268 to 270 °C. The molecule also came in with a logP in “Log P (Table 4)” of 2.01. In series [1], this molecule came in with a viability at 0.01 µM of 97.6%, a viability at 0.1 µM of 91.4%, a viability at 2.5 µM of 85.8% and a viability at 5 µM of 74.8%. The viability at 10 µM in series [1] is 55.8%. In series [2], this molecule returned a viability at 0.01 µM of 82.6%, a viability at 0.1 µM of 74.4%, a viability at 2.5 µM of 68.8% and a viability at 5 µM of 60.8%. In series [2], the viability at 10 µM was found to be 54.8%.
`Cc1cccc(C)c1Nc1nc(N)c(-c2cc(=O)c3ccc(O)cc3o2)s1` [Compound S1-M4, 2-(2-(2,6-dimethylphenylamino)-4-aminothiazol-5-yl)-7-hydroxy-4H-chromen-4-one]: the melting point lay within 224 to 226 °C. The logP in “Log P (Table 4)” amounted to 3.42. Also, in series [1], the viability at 0.01 µM was 88.6%, the viability at 0.1 µM amounted to 85.8%, the viability at 2.5 µM was 77.6% and the viability at 5 µM is 68.6%. The same molecule gave a viability at 10 µM in series [1] of 61.6%. In series [2], the viability at 0.01 µM was 80.6%, the viability at 0.1 µM stood at 71.8%, the viability at 2.5 µM was found to be 65.6% and the viability at 5 µM was found to be 58.6%. The molecule further showed a viability at 10 µM in series [2] of 50.6%.
With `Nc1nc(Nc2c(Cl)cccc2Cl)sc1-c1cc(=O)c2ccc(O)cc2o1` [Compound S1-M5, 2-(2-(2,6-dichlorophenylamino)-4-aminothiazol-5-yl)-7-hydroxy-4H-chromen-4-one], the melting point was 260 to 262 °C. Besides, the logP in the series “Log P (Table 4)” came to 3.02. In series [1], this molecule had a viability at 0.01 µM of 98.8%, a viability at 0.1 µM of 91.6%, a viability at 2.5 µM of 83.9% and a viability at 5 µM of 71.9%. In series [1], this molecule came in with a viability at 10 µM of 65.9%. In series [2], this molecule registered a viability at 0.01 µM of 84.8%, a viability at 0.1 µM of 77.6%, a viability at 2.5 µM of 69.9% and a viability at 5 µM of 60.9%. The same molecule had a viability at 10 µM in series [2] of 52.9%.
`COc1ccc(Nc2nc(N)c(-c3cc(=O)c4ccc(O)cc4o3)s2)cc1` [Compound S1-M6, 2-(2-(4-methoxyphenylamino)-4-aminothiazol-5-yl)-7-hydroxy-4H-chromen-4-one]: the melting point is 220 to 222 °C. Besides, the logP in “Log P (Table 4)” was 1.92. In series [1], this molecule came in with a viability at 0.01 µM of 53.1%, a viability at 0.1 µM of 45.1%, a viability at 2.5 µM of 36.7% and a viability at 5 µM of 27.9%. Besides, the viability at 10 µM in series [1] turned out to be 19.4%. In series [2], the viability at 0.01 µM was determined as 48.7%, the viability at 0.1 µM worked out at 35.2%, the viability at 2.5 µM came out at 25.8% and the viability at 5 µM amounted to 19.9%. Besides, the viability at 10 µM in series [2] is 12.9%.
As for `COc1ccccc1Nc1nc(N)c(-c2cc(=O)c3ccc(O)cc3o2)s1` [Compound S1-M7, 2-(2-(2-methoxyphenylamino)-4-aminothiazol-5-yl)-7-hydroxy-4H-chromen-4-one], the melting point is 210 to 212 °C. The same molecule registered a logP in “Log P (Table 4)” of 2.11. In series [1], this molecule displayed a viability at 0.01 µM of 96.1%, a viability at 0.1 µM of 94.9%, a viability at 2.5 µM of 84.8% and a viability at 5 µM of 74.8%. This molecule yielded a viability at 10 µM in series [1] of 66.8%. In addition, in series [2], the viability at 0.01 µM turned out to be 85.1%, the viability at 0.1 µM was 75.9%, the viability at 2.5 µM is 65.8% and the viability at 5 µM was 57.8%. Further, the viability at 10 µM in series [2] was determined as 45.8%.
For `Nc1nc(Nc2ccccc2)sc1-c1cc(=O)c2ccc(O)cc2o1` [Compound S1-M8, 2-(4-amino-2-(phenylamino)thiazol-5-yl)-7-hydroxy-4H-chromen-4-one], the melting point was in the range of 218 to 220 °C. This molecule also yielded a logP in the series “Log P (Table 4)” of 3.32. Besides, in series [1], the viability at 0.01 µM was found to be 93.3%, the viability at 0.1 µM came out at 87.1%, the viability at 2.5 µM amounted to 75% and the viability at 5 µM was 64%. The viability at 10 µM in series [1] stood at 54%. Moreover, in series [2], the viability at 0.01 µM amounted to 88.3%, the viability at 0.1 µM was determined as 76.1%, the viability at 2.5 µM was 68% and the viability at 5 µM worked out at 59%. In addition, in series [2], the viability at 10 µM was found to be 51.4%.
`Cc1ccc(Nc2nc(N)c(-c3cc(=O)c4ccccc4o3)s2)cc1` [Compound S1-M9, 2-(2-(p-tolylamino)-4-aminothiazol-5-yl)-4H-chromen-4-one] came in with a melting point of 200 to 202 °C. This molecule also showed a logP in “Log P (Table 4)” of 1.9. In series [1], this molecule displayed a viability at 0.01 µM of 100%, a viability at 0.1 µM of 91.8%, a viability at 2.5 µM of 87.3% and a viability at 5 µM of 77.3%. The same molecule yielded a viability at 10 µM in series [1] of 67.3%. In series [2], this molecule registered a viability at 0.01 µM of 87%, a viability at 0.1 µM of 78.8%, a viability at 2.5 µM of 70.3% and a viability at 5 µM of 62.3%. The molecule also registered a viability at 10 µM in series [2] of 55.6%.
In the case of `COc1ccc2oc(-c3sc(Nc4ccc(C)cc4)nc3N)cc(=O)c2c1` [Compound S1-M10, 2-(2-(p-tolylamino)-4-aminothiazol-5-yl)-6-methoxy-4H-chromen-4-one], the melting point is 280 to 282 °C. The logP in the series “Log P (Table 4)” amounted to 3.99. Besides, in series [1], the viability at 0.01 µM amounted to 96.9%, the viability at 0.1 µM was found to be 93%, the viability at 2.5 µM was 86.4% and the viability at 5 µM was determined as 76.4%. In addition, the viability at 10 µM in series [1] turned out to be 66.4%. In series [2], this molecule gave a viability at 0.01 µM of 87.9%, a viability at 0.1 µM of 78%, a viability at 2.5 µM of 69.4% and a viability at 5 µM of 59.4%. The molecule also registered a viability at 10 µM in series [2] of 50.4%.
For the molecule `COc1ccc2oc(-c3sc(Nc4ccccc4C)nc3N)cc(=O)c2c1` [Compound S1-M11, 2-(2-(o-tolylamino)-4-aminothiazol-5-yl)-6-methoxy-4H-chromen-4-one], the melting point fell in the range of 288 to 290 °C. Also, the logP in “Log P (Table 4)” is 2.11. Moreover, in series [1], the viability at 0.01 µM worked out at 99.8%, the viability at 0.1 µM turned out to be 93.7%, the viability at 2.5 µM was found to be 84.8% and the viability at 5 µM is 72.8%. The molecule further gave a viability at 10 µM in series [1] of 62.8%. Moreover, in series [2], the viability at 0.01 µM was 83.8%, the viability at 0.1 µM worked out at 75.7%, the viability at 2.5 µM was 67.2% and the viability at 5 µM was determined as 58.8%. The viability at 10 µM in series [2] worked out at 49.8%.
In series [1], `COc1cc2ncnc(Nc3ccc(F)c(Cl)c3)c2cc1OCCCN1CCOCC1` [Gefitinib, gefitinib, reference compound] yielded a viability at 0.01 µM of 55.2%, a viability at 0.1 µM of 43.7%, a viability at 2.5 µM of 35.3% and a viability at 5 µM of 29.3%. The molecule further showed a viability at 10 µM in series [1] of 20.3%. In series [2], this molecule gave a viability at 0.01 µM of 55.2%, a viability at 0.1 µM of 43.7%, a viability at 2.5 µM of 35.3% and a viability at 5 µM of 29.3%. In series [2], this molecule gave a viability at 10 µM of 20.3%.
